According to patent publication US20240226234A1, “WNT5A PEPTIDES FOR THE TREATMENT OF ACUTE M[…]” (W[…], priority 2021, published 2024):
No end group written: not given here. *: point of attachment. For = O=C*

Assays:
Assay type in all cases: cell-based, human
KG1a cells = assay: Cell cycle assay, KG1a cells; conditions: 72 h
Description: (§1) A panel of human myeloid leukemia cell lines (HL60, K562, KG1a, THP1 and U937) and HS-5 mesenchymal stromal cells lineage were cultured in Roswell Park Memorial Institute medium-1640 (RPMI; Sigma) containing 10% Fetal Bovine Serum (Gibco), glutamine (2 mM; Sigma), penicillin (100 μg/mL; Sigma), streptomycin (100 μg/mL; Sigma), and amphotericin B (0.25 μg/mL; Gibco). The cells were maintained in a humidified atmosphere at 37° C. and 5% CO2 and the experiments were performed when they reached exponential growth. For the assays, cells were seeded on a 24-well plate and treated or not with Foxy-5 for 72 hours.
(§2) Cells treated with Foxy or with vehicle were collected and fixed, at least, 24 hours in 70% ethanol. DNA was stained with a buffer containing iodide propidium (20 μg/mL; Sigma) and RNase A (10 μg/mL; Sigma). Cell fluorescence was detected with a FACSCalibur flow cytometer (BD). The proportions of cells in the cell cycle phases were analyzed by Modifit (Verify Software House Inc), according to DNA distributions.
(§3) As we observed a reduction in the leukemic proliferation after Foxy-5 treatment, we also analyzed the cell cycle phases. Leukemia cell lines were treated for 72 hours with Foxy-5, at doses of 50 μM and 100 μM, or vehicle, stained with the Piper buffer containing RNAse and iodeto propidium and then analyzed by flow cytometry.

PI3K and MAPK pathways = assay: Western blot of PI3K and MAPK pathway proteins, K562 cells; conditions: K562, Foxy-5 50 μM or 100 μM, 72 h
Description: Equal amounts of protein were resolved by sodium dodecyl sulphate-polyacrylamide gel electrophoresis and transferred onto nitrocellulose membranes (Millipore). Detection was carried out with the chemiluminescent substrate using an ECL Plus (GE-Healthcare). Monoclonal antibodies against P70S6K (sc-8418) and polyclonal antibodies against Actin (sc-1616), AKT1/2/3 (sc-8312), BAX (sc-493), BCL-XL (sc-8392), GAPDH (sc-32,233), p-AKT1/2/3 (sc-33,437) and p-P70S6K (sc-7984) were purchased from Santa Cruz Biotechnology. ERK1/2 ([pT185/Y187]; 44-680G) and ERK1/2 (44-654G) from Invitrogen. Quantitative blots were carried out using the UN-SCAN-IT densitometer software.
Based on the above results, the activity of proteins of PI3K and MAPK pathways were then investigated in a western blot. Briefly, U937 and K562 cells were seeded and treated with Foxy-5 (50 μM or 100 μM) or vehicle for 72 hours. Then, equal amounts of protein were used for total extracts followed by electrophoresis on 12% SDS polyacrylamide gels under reducing conditions, transferred to nitrocellulose membranes, blocked with 10% skimmed milk in TBS-0.1% Tween for 1 hour, stained with appropriate primary and secondary antibodies. The membranes were visualized with chemiluminescence using an ECL Plus (GE-Healthcare). Quantitative analyses of the optical intensities of the protein bands were determined with Un-Scan-It Gel 6.1 (Silk Scientific Inc.).

K562 cells = assay: Autophagy assay (acridine orange), K562 cells; conditions: K562, 2D culture, 72 h
Description: as §1
(§4) Cells treated with Foxy or with vehicle were collected and acids vesicles were measured by flow cytometry following staining with Acridine Orange (0.01 mg/mL; Sigma). Acquisition of cells was performed on a FACScalibur flow cytometer (BD) and analysis was carried out using the FlowJo software 4.
(§5) As autophagy is required for sustaining leukemia cell growth by induction of ROS production, we measured the levels of acidic granule formation by flow cytometry after Foxy-5 or vehicle treatment. […]

HL60 cells = assay: Cell cycle assay, HL60 cells; conditions: 72 h
Description: as §1, §2, §3

THP1 cells = assay: Transwell chemotaxis assay toward CXCL12, THP1 cells; conditions: THP1, Foxy-5 100 μM 72 h pretreatment, CXCL12 100 ng/mL, 24 h
Description: Leukemic cell lines, pretreated or not with Foxy-5 (72 hours of stimulation) were tested for chemotaxis in Transwell-based assays for Chemotaxis (6.5 mm diameter, 8 μm pore size; Corning). Polycarbonate membranes were incubated with poly-L-lysine (1 mg/mL) for 1 hour at 37° C. followed by saline buffer washing. Briefly, cells were collected, washed with media containing bovine serum albumin (0.1% BSA; Sigma), and then seeded at a density of 5×10^5 cells into the upper chamber of the transwell. The lower chamber was filled with media containing 0.5% BSA (negative control), media containing 10% FBS (positive control) and media 5 containing 0.5% BSA with CXCL12 (100 ng/ml; Peprotech) (Melo et al., 2014). Following 6 h or 24 h of incubation at 37° C., cells that migrated into the lower chamber were collected, centrifuged, resuspended in saline buffer and counted. The number of migrated cells was expressed as a percentage of the input, i.e., the cells number applied directly to the lower compartment in parallel wells. The migration of cells was normalized to 100%+/−standard deviation (SD) of triplicates (Favaro et al., 2013).
We investigated whether restoring of WNT5A could enable the modulation CXCL12-induced chemotaxis of leukemia cells. […]

U937 cells = assay: Autophagy assay (acridine orange), U937 cells; conditions: U937, 2D culture, 72 h
Description: as §1, §4, §5

Foxy-5: Formylated hexapeptide fragment of WNT5A: MDGCEL (SEQ. ID. NO. 3) with methionine in position 1 as N-formyl methionine; WNT5A-mimicking compound (For-MDGCEL; listed as Homo sapiens)
cells in G0/G1 cell cycle phase (average) (KG1a cells; co-cultured with HS5 stromal cells, Foxy-5 50 μM): 78.58% | cells in G0/G1 cell cycle phase (average) (KG1a cells; co-cultured with HS5 stromal cells, Foxy-5 100 μM): 76.53% | cells in G0/G1 cell cycle phase (average) (KG1a cells; monoculture, Foxy-5 50 μM): 69.95% | cells in G0/G1 cell cycle phase (average) (KG1a cells; monoculture, Foxy-5 100 μM): 73.79% | phosphorylation level of AKT compared to vehicle-treated cells (PI3K and MAPK pathways): lower phosphorylation levels | phosphorylation level of ERK compared to vehicle-treated cells (PI3K and MAPK pathways): lower phosphorylation levels | protein level of cyclin D1 compared to vehicle-treated cells (PI3K and MAPK pathways): reduced protein level | autophagy (acidic granule formation, acridine orange, average) (K562 cells; Foxy-5 50 μM): 21.32 (range 20.46-22.28) MFI | autophagy (acidic granule formation, acridine orange, average) (K562 cells; Foxy-5 100 μM): 19.80 (range 19.70-20.40) MFI | cells in G0/G1 cell cycle phase (average) (HL60 cells; HL60, co-cultured with HS5 stromal cells, Foxy-5 50 μM): 53.47% | cells in G0/G1 cell cycle phase (average) (HL60 cells; HL60, co-cultured with HS5 stromal cells, Foxy-5 100 μM): 70.68% | cells in G0/G1 cell cycle phase (average) (HL60 cells; HL60, monoculture, Foxy-5 50 μM): 51.57% | cells in G0/G1 cell cycle phase (average) (HL60 cells; HL60, monoculture, Foxy-5 100 μM): 53.02% | CXCL12-induced chemotaxis (migrated cells as percentage of the input, average) (THP1 cells): 11.17% | autophagy (acidic granule formation, acridine orange, average) (U937 cells; Foxy-5 50 μM): 9.40 (range 7.68-11.00) MFI | autophagy (acidic granule formation, acridine orange, average) (U937 cells; Foxy-5 100 μM): 6.30 (range 4.80-8.31) MFI
